Laboratory results taken from US5834518A, “Use of N,N'-dibenzylethylenediamine-N,N'-diacetic acid derivatives as depigmenting agents” (L'Oreal, priority 1996, dated 1998).

Experiments:
[1] = target: T1, human melanocyte tyrosinase (Homo sapiens, UniProt P14679); test: dopa-oxidase activity of human melanocyte tyrosinase after culturing melanocytes with compound; type: cell-based; settings: human melanocytes cultured three days, 5 mM L-dopa, absorbance 475 nm, read-out: Percentage of inhibition
T1 construct: Human melanocytes are prepared and cultured; endogenous in cells; host or cells: cultured human melanocytes
T1 sequence (P14679 19-529): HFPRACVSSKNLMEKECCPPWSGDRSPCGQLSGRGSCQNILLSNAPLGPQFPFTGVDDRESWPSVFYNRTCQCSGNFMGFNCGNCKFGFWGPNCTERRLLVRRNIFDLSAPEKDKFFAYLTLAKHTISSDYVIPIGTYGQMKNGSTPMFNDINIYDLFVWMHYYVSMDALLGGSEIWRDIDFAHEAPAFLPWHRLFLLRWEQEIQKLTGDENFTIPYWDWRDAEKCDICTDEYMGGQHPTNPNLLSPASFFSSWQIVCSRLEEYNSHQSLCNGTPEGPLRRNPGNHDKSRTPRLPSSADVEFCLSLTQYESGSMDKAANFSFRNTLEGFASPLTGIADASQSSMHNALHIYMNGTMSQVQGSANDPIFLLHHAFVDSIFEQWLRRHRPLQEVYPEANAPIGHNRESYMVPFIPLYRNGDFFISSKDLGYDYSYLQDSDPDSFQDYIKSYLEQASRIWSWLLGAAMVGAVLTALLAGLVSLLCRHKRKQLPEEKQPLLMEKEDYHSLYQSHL
Method: The effectiveness of the compound of formula (1) as a tyrosinase inhibitor is determined by evaluating its effect on the dopa-oxidase activity of human melanocyte tyrosinase. The compound tested is N,N'-di(3-hydroxybenzyl)ethylenediamine-N,N'-diacetic acid of formula (II): [drawing 5]
Human melanocytes are prepared and cultured and then introduced into media containing different, non-cytotoxic concentrations of the compound of formula (II) (0.1 mM, 0.25 mM, 0.5 mM and 0.75 mM). After three days, the melanocytes are "trypsinized" in a mixture of trypsin/0.05% EDTA/0.02% in a phosphate buffer (50 mM at pH 6.8), washed three times in the phosphate buffer containing 1% (w/v) Triton x-100 and subjected to ultrasound. After centrifugation, samples are taken and mixed with 5 mM L-dopa in phosphate buffer. The tyrosinase activity is evaluated by spectrophotometry by measuring the increase in the absorbance at 475 nm because of the formation of dopachrome from 5 mM dope. The absorbance is read on a microplate reader at 25° C. for 60 min.
The activity of the cellular tyrosinase is measured relative to a standard range prepared with commercial tyrosinase.

Human melanocytes = test: cytotoxicity to cultured human melanocytes; type: cell-based; settings: 0.1 mM, 0.25 mM, 0.5 mM and 0.75 mM in human melanocyte culture

O=C(O)CN(CCN(CC(=O)O)Cc1cccc(O)c1)Cc1cccc(O)c1 [compound of formula (II), N,N'-di(3-hydroxybenzyl)ethylenediamine-N,N'-diacetic acid]
inhibition at 100 µM ([1]; 0.1 mM compound): 19%
inhibition at 250 µM ([1]; 0.25 mM compound): 30%
inhibition at 500 µM ([1]; 0.5 mM compound): 33%
inhibition at 750 µM ([1]; 0.75 mM compound): 42%
cytotoxicity of the concentrations used (Human melanocytes): non-cytotoxic
